Data set [1] concerns skin. The data set can be described thus: Stimulation erythema with antioxidant incorporated in the conductive hydrogel adhesive. The class given is in vivo. The conditions noted are these: in UV cured acrylic hydrogel adhesive; this amount gave a very weak adhesive that cohesively failed. The text has this: In the majority of conductive hydrogel adhesives used in these biomedical electrodes are UV cured acrylics formed by the free radical polymerization of hydrophilic acrylic monomers in water. UV light generates free radicals from photoinitiators, however antioxidants react with these free radicals thereby inhibiting the polymerization of the acrylic monomers. Antioxidants such as MEHQ are used to preserve acrylic monomers until use. […] A few ppm of the very potent antioxidant Astaxathin inhibited polymerization. The greater than 1500 ppm of MEHQ alone that was needed to prevent and/or alleviate stimulation erythema gave a very weak hydrogel adhesive that cohesively failed leaving residue on the skin.

The nature of data set [2]: Stability of SAP in the aqueous environment of hydrogel adhesives. Particulars: pH 4.0±0.5 aqueous environment of the hydrogel adhesives. The class given is physicochemical. The text has this:
(See U.S. Pat. No. 6,842,636 B2 to Perrault, et al. and U.S. Pat. No. 6,115,625 to Heard et al.).

The text below walks through data of US20080008734A1, “Reduction of skin irritation caused by biomedical electrodes” (priority 2006, published 2008).

Structures are written as SMILES.

Turning to `COc1ccc(O)cc1` [MEHQ, monomethyl ether of hydroquinone], in data set [1], the “amount of MEHQ alone needed to prevent and/or alleviate stimulation erythema” value is reported as “greater than 1500 ppm”.

As for `O=C1O[C@H](C(O)CO)C(O)=C1OP(=O)(O)O` (some centres unmarked) [SAP, Sodium Ascorbyl Phosphate], the stability over time entry in data set [2] is reported as “not stable over time”.
